According to ChEMBL document CHEMBL1201862, “PubChem BioAssay data set” (2004):
The source made the active and inactive calls.

How the values were obtained:
Troponin, cardiac muscle = Troponin, cardiac muscle (Homo sapiens, UniProt P19429+P45379+P63316); assay: Fluorescence-based biochemical high throughput dose response assay for activators of the calcium sensitivity of cardiac Regulated Thin Filaments (RTF). [Related pubchem assays (depositor defined):AID493008, AID493018, AID504382, AID504383]; format: protein-complex assay
[1] = molecular target: T1, Zinc finger protein mex-5 (Caenorhabditis elegans, UniProt Q9XUB2); assay: potency of MEX-5 RNA-binding blockers – biochemical, C. elegans, fluorescence polarization, dose response (AID 1960)
T1 sequence (Q9XUB2 whole entry): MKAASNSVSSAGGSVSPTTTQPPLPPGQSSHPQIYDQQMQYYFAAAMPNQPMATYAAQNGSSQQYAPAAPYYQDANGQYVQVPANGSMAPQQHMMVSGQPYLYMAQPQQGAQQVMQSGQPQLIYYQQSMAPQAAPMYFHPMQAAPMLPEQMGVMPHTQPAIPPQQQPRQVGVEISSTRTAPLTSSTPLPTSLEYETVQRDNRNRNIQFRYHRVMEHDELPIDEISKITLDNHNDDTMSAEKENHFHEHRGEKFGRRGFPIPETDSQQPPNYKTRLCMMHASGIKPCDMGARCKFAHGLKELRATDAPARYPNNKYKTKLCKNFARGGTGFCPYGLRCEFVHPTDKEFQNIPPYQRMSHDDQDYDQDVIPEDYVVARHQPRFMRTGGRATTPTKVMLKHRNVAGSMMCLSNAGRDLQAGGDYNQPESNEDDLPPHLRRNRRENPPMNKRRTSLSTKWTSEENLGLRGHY

[2] = molecular target: T2, RNA-binding protein pos-1 (Caenorhabditis elegans, UniProt G5EF15); assay: disruptors of C. elegans POS-1 RNA interaction – biochemical, fluorescence polarization, dose response (AID 1964);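 also: purified POS-1 fused to maltose binding protein made in E. coli; potency of compounds blocking POS-1 binding to fluorescent RNA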
T2 sequence (G5EF15 whole entry): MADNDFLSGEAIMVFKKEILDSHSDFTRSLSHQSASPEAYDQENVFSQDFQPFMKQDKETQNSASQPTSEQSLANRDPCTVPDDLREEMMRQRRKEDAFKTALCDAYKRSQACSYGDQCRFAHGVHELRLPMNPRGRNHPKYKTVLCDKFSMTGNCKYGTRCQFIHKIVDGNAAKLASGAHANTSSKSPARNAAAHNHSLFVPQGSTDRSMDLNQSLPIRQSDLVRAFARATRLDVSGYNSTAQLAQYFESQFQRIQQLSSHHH

Protein skinhead-1 = molecular target: T3, Protein skinhead-1 (Caenorhabditis elegans, UniProt P34707); format: functional
T3 sequence (P34707 whole entry): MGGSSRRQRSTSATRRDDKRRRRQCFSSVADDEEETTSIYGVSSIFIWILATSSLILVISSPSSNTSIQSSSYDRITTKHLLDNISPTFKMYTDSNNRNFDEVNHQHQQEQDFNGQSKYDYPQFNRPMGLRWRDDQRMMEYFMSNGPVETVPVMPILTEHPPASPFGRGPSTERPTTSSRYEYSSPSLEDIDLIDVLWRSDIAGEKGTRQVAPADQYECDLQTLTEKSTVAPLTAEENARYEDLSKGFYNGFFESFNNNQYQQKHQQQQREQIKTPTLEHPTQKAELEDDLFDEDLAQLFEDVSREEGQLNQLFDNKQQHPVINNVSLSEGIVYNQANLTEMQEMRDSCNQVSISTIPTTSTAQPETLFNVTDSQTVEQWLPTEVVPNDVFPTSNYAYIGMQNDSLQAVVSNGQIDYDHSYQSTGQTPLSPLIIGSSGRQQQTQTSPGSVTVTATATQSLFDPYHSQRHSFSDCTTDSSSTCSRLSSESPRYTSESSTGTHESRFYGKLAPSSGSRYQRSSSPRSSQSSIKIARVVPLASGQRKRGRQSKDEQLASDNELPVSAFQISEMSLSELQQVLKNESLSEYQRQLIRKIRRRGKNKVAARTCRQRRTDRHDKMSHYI

[3] = molecular target: T4, Polyadenylate-binding protein 1 (Homo sapiens, UniProt P11940); assay: MLLE domain peptide-binding blockers, IC50 – biochemical, fluorescence polarization, FITC-PAM2 peptide, dose response (AID 602259); format: functional; conditions: read-out: IC50_Mean
T4 sequence (P11940 whole entry, the tested form may be a part): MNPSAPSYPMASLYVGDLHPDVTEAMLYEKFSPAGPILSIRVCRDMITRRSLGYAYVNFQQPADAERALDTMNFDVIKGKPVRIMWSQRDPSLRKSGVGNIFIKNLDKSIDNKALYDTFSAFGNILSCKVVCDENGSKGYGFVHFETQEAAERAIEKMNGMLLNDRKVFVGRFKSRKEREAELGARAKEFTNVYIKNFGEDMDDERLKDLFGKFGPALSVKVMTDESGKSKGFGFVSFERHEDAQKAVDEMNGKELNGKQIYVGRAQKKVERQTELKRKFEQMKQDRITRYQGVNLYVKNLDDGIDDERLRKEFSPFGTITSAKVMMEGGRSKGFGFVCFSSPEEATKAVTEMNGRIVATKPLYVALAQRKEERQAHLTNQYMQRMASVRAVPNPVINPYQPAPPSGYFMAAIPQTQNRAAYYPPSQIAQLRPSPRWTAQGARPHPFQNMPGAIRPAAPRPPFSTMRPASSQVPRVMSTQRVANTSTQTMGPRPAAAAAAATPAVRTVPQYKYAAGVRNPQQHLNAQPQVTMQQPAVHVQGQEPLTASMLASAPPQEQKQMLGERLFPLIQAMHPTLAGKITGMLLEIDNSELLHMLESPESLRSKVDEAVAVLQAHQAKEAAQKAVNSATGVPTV

[4] = molecular target: T4, Polyadenylate-binding protein 1; assay: MLLE binding blockers, Cy5 peptide tracer – biochemical, fluorescence polarization, Cy5-PAM2 peptide, secondary, miRNA deadenylation inhibitor project, dose response (AID 602260); format: functional; conditions: read-out: IC50_Mean
14-3-3 protein gamma = 14-3-3 protein gamma (Homo sapiens, UniProt P61981); assay: modulators of 14-3-3 gamma client binding – dose response (AID 711); format: functional
14-3-3 protein gamma, sequence (P61981 whole entry): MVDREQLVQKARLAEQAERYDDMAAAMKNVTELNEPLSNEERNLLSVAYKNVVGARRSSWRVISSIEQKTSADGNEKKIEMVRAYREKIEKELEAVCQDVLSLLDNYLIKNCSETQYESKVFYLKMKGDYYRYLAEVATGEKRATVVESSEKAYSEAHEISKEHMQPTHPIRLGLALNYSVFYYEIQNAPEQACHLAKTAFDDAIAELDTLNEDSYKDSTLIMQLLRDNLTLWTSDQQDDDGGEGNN

Protein Rev = Protein Rev (Human immunodeficiency virus type 1 group M subtype B (isolate HXB2)(HIV-1), UniProt P04618); assay: blockers of HIV Rev/RRE RNA complex – biochemical, fluorescence polarization, HIV-1, dose response (AID 434976); parameters: species or system Human immunodeficiency virus 1
Protein Rev, sequence (P04618 whole entry): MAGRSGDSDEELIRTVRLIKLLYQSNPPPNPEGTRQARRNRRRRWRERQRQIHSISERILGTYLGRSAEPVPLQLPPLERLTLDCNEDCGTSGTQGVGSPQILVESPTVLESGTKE

[5] = molecular target: Female germline-specific tumor suppressor gld-1 (Caenorhabditis elegans, UniProt Q17339); assay: blockers of GLD-1/TGE RNA complex formation – biochemical, fluorescence polarization, C. elegans, dose response (AID 2802);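 also: fluorescence polarization of labeled TGE RNA bound by purified gld-1 protein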
[6] = molecular target: C-C chemokine receptor type 6 (Homo sapiens, UniProt P51684); assay: antagonism of CCR6 beta-arrestin recruitment – cell-based, luminescent beta-arrestin readout, dose response (AID 504728); format: functional
Beta-galactosidase = Beta-galactosidase (Escherichia coli, UniProt Q8VNN2); assay: detection-enzyme interference by beta-gal modulators – biochemical, E. coli enzyme, set 3, artefact control for CCR6 antagonist project, dose response (AID 504712); format: functional
Beta-galactosidase, sequence (Q8VNN2 whole entry): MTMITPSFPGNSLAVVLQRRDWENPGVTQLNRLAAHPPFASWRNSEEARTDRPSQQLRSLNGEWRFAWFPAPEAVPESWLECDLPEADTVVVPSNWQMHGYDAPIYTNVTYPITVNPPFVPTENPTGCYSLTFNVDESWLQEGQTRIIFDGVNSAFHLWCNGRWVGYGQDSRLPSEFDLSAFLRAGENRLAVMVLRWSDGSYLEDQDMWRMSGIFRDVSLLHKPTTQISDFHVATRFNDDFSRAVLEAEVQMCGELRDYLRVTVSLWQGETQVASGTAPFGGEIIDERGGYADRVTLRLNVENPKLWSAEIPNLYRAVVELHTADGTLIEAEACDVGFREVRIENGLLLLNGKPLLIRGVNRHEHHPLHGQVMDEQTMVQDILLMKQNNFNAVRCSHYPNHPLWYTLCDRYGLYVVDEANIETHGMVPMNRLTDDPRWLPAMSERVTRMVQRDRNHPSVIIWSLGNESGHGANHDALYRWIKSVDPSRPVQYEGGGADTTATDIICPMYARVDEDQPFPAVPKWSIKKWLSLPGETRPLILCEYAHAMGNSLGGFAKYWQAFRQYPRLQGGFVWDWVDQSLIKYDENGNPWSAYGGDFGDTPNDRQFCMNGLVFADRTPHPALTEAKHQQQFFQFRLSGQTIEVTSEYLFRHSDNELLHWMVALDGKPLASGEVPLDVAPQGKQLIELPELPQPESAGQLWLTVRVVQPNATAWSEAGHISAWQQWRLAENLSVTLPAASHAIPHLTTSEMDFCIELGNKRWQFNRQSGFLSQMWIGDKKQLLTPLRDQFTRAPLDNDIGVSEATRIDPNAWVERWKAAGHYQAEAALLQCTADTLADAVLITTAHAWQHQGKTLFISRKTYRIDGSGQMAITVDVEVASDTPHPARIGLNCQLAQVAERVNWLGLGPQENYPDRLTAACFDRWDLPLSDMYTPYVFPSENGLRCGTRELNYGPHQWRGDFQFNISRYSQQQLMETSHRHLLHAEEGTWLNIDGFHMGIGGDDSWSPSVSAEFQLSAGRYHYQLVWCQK

[7] = molecular target: T5, E3 ubiquitin-protein ligase XIAP (Homo sapiens, UniProt P98170); assay: small molecules displacing peptide from XIAP – biochemical, IAP family, fluorescence polarization (AID 1018); format: functional
T5 sequence (P98170 whole entry): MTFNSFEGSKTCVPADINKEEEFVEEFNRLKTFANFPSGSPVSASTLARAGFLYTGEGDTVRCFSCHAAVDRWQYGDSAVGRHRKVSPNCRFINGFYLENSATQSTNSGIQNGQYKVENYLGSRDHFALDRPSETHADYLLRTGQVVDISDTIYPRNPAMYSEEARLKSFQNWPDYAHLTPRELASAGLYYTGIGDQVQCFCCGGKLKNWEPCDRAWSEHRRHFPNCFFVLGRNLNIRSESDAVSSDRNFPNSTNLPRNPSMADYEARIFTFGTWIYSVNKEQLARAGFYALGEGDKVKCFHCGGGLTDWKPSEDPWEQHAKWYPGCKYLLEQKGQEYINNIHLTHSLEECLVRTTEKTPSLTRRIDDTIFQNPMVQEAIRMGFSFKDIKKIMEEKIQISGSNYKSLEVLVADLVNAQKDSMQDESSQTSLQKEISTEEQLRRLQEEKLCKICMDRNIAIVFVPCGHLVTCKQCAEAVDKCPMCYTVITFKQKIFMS

[8] = molecular target: T5, E3 ubiquitin-protein ligase XIAP; assay: Counter Screen using XIAP-Bir3 for Chemical Antagonists of Bir1/2 domains of IAP-family anti-apoptotic proteins. [Related pubchem assays (depositor defined):AID1018, AID1449, AID1514, AID1638, AID1749, AID1750, AID488957, AID488963]
[9] = molecular target: T6, Mannose-6-phosphate isomerase (Homo sapiens, UniProt P34949); assay: MPI inhibition at elevated mannose 6-phosphate – biochemical, fluorescence intensity, high mannose 6-phosphate, primary screen (AID 1220)
T6 sequence (P34949 whole entry): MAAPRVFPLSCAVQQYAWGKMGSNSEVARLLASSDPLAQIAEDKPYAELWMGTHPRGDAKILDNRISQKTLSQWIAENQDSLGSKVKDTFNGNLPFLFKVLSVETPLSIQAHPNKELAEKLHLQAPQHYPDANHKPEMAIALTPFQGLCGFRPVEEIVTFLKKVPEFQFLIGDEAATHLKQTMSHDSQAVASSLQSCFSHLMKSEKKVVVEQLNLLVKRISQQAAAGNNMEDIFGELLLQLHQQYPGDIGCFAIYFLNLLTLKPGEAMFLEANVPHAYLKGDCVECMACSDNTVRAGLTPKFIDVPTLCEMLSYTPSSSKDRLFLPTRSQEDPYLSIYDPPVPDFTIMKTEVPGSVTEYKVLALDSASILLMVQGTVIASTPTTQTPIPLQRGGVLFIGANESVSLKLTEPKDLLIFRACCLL

SUMO-activating enzyme [10] = molecular target: T7, SUMO-activating enzyme (Homo sapiens, UniProt Q9UBT2); assay: blockers of SAE1/SAE2–UBC9 SUMO transfer – biochemical, HTRF, uHTS, primary screen (AID 2006); format: protein-complex assay
T7 sequence (Q9UBE0 whole entry): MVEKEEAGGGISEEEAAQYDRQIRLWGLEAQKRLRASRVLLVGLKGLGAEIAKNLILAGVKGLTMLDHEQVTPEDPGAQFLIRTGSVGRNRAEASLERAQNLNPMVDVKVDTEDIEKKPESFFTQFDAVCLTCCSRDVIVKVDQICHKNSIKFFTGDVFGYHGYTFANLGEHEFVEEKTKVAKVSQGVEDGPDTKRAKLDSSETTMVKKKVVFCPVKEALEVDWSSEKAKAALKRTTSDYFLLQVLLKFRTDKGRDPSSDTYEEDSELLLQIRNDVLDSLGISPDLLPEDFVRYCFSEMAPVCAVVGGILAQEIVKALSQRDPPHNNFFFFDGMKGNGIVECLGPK
T7 sequence (Q9UBT2 whole entry): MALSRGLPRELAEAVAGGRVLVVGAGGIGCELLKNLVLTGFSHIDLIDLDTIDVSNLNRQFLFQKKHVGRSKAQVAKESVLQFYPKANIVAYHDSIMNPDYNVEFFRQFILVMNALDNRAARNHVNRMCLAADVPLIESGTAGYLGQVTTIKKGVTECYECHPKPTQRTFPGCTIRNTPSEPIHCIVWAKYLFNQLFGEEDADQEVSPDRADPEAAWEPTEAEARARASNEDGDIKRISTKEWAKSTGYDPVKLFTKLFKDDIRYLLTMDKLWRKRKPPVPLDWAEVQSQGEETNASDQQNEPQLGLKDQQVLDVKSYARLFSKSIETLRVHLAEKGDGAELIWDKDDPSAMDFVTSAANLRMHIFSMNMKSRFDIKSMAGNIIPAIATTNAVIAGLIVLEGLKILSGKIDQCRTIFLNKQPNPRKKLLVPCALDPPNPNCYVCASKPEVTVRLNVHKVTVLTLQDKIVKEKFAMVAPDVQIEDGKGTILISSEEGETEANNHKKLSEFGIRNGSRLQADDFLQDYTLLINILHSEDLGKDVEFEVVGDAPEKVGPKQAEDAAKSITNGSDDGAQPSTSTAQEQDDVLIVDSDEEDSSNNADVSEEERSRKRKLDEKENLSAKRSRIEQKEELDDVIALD

SUMO-activating enzyme [11] = molecular target: T7, SUMO-activating enzyme; assay: blockers of UBC9-mediated SUMO conjugation – biochemical, AlphaScreen, SUMOylation inhibitor project, confirmation (AID 2018); format: functional
[12] = molecular target: DNA dC->dU-editing enzyme APOBEC-3G (Homo sapiens, UniProt Q9HC16); assay: Dose Response confirmation of small molecule APOBEC3G DNA Deaminase Inhibitors via a fluorescence-based single-stranded DNA deaminase assay. [Related pubchem assays (depositor defined):AID493012, AID493028]; format: functional
DNA dC->dU-editing enzyme APOBEC-3G, sequence (Q9HC16 whole entry): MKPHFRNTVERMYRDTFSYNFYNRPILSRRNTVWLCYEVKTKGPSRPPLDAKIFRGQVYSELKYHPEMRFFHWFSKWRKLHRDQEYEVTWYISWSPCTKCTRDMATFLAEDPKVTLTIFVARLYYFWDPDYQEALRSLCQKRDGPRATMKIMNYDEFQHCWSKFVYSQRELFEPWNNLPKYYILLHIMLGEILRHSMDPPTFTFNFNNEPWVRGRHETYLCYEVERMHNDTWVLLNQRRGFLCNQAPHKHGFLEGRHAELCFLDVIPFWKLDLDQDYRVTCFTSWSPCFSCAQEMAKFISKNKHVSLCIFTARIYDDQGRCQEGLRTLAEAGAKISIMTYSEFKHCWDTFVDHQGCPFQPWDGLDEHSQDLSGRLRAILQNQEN

[13] = molecular target: Alkaline phosphatase, placental type (Homo sapiens, UniProt P05187); assay: human placental alkaline phosphatase inhibition – biochemical, luminescence, confirmation (AID 1512); format: functional
[14] = molecular target: T8, Intestinal-type alkaline phosphatase (Mus musculus, UniProt P24822); assay: PubChem AID 488875; format: functional
T8 sequence (P24822 whole entry): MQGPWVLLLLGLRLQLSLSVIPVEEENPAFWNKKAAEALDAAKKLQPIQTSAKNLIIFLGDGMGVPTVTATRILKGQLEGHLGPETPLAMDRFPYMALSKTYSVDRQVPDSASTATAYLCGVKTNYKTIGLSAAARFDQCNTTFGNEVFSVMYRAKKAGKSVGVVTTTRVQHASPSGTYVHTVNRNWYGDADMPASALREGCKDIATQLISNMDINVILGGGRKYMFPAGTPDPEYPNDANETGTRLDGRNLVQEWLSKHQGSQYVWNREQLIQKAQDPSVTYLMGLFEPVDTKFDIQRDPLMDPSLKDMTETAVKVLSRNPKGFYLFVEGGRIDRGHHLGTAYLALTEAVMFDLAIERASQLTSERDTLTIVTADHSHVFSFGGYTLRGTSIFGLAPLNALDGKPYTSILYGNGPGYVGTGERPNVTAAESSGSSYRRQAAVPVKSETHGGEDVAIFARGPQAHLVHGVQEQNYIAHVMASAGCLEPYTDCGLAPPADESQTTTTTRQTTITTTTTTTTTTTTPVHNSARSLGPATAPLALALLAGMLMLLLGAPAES

[15] = molecular target: T9, Intestinal-type alkaline phosphatase (Homo sapiens, UniProt P09923); assay: activation of human intestinal alkaline phosphatase – biochemical, luminescent, uHTS hits, set 2, dose response (AID 488817); format: functional;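 also: potency of activators that raise enzyme activity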
T9 sequence (P09923 whole entry): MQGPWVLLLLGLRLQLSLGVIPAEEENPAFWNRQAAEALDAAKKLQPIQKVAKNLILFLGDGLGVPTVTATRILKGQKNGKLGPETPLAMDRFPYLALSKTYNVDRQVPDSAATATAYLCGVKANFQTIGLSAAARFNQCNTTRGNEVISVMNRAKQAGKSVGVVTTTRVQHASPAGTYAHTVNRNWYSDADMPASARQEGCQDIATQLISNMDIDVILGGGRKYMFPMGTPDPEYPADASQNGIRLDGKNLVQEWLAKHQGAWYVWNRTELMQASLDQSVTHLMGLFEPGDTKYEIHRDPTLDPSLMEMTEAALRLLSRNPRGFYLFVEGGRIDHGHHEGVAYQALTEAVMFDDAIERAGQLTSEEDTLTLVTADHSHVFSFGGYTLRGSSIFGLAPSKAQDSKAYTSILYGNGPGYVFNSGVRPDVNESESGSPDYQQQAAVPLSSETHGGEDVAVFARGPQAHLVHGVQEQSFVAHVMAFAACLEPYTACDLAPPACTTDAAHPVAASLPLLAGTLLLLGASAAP

[16] = molecular target: T9, Intestinal-type alkaline phosphatase; assay: human intestinal alkaline phosphatase activators, dose response, biochemical, luminescence, uHTS hits (AID 463120); format: functional
[17] = molecular target: T10, Alkaline phosphatase, tissue-nonspecific isozyme (Homo sapiens, UniProt P05186); assay: activation of tissue-nonspecific alkaline phosphatase – biochemical, TNAP isozyme, human IAP uHTS hits, selectivity assay for human IAP activator project, dose response (AID 488886); format: functional;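 also: potency of compounds raising TNAP activity as a selectivity check on IAP activators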
T10 sequence (P05186 whole entry): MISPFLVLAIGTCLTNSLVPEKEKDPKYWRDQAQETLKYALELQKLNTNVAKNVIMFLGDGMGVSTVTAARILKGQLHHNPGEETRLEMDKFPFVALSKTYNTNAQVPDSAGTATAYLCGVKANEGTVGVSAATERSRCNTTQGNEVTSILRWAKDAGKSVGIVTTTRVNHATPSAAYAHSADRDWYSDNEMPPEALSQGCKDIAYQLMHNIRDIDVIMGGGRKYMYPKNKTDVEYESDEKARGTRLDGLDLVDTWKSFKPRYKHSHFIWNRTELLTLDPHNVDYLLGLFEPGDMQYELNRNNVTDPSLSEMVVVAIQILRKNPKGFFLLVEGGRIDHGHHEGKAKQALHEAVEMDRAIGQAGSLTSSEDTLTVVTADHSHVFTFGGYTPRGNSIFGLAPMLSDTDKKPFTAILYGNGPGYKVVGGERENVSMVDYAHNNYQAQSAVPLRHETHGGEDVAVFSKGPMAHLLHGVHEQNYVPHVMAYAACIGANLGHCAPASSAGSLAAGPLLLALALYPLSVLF

[18] = molecular target: T9, Intestinal-type alkaline phosphatase; assay: inhibition of human intestinal alkaline phosphatase – biochemical, luminescent, uHTS hits, set 2, dose response (AID 488793); format: functional
[19] = molecular target: T9, Intestinal-type alkaline phosphatase; assay: Dose Response confirmation of uHTS hits from a small molecule inhibitors of human intestinal alkaline phosphatase via a luminescent assay. [Related pubchem assays (depositor defined):AID2544, AID2574]; format: functional
[20] = molecular target: Induced myeloid leukemia cell differentiation protein Mcl-1 (Homo sapiens, UniProt Q07820); format: functional
[21] = molecular target: T10, Alkaline phosphatase, tissue-nonspecific isozyme; assay: TNAP enzyme inhibition by screening hits, dose response, selectivity assay for mouse IAP inhibitor project, biochemical, human TNAP, uHTS hits (AID 488906); format: functional
[22] = NIH-3T3 fibroblast cytotoxicity, dose response, cytotoxicity control, cell-based, fluorescence, Alamar Blue, secondary assay (AID 2327); format: functional;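 also: NIH-3T3 mouse fibroblasts cultured with fluconazole at 8 µg/mL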
[23] = molecular target: T8, Intestinal-type alkaline phosphatase; assay: PubChem AID 488785; format: functional
[24] = fluconazole-exposed Candida albicans growth modulators – fluorescence, retest, confirmation (AID 2467); format: functional, cell-based
[25] = molecular target: T9, Intestinal-type alkaline phosphatase; assay: inhibition of human intestinal alkaline phosphatase – biochemical, dose response (AID 488876); format: functional

COc1cc(-c2c(-c3ccc4c(c3)OCO4)noc2C)ccc1F
EC50 (Troponin, cardiac muscle): > 71.4 µM (inactive)

COc1ccc(-c2nc(C[S+]([O-])CC(=O)NCc3ccccn3)c(C)o2)cc1 (configuration not stated)
EC50 [1]: 30.5 µM (active)
EC50 [2]: 55.4 µM (active)
IC50 (Protein skinhead-1): > 100 µM (inactive)
IC50 [3]: 29.4 µM (inactive)
IC50 [4]: > 66 µM (inactive)
IC50 (14-3-3 protein gamma): 10.7 µM (active)
IC50 (Protein Rev): 19.4 µM (not active)
IC50 [5]: 5 µM (active)

CC1C(c2ccccc2)N(C)C(c2ccccc2)C(C)C1(O)C#Cc1ccccc1 (configuration not stated)
IC50 [6]: > 66.6 µM (inactive)
IC50 (Beta-galactosidase): > 66.6 µM (inactive)

CCc1ccc(NC(=O)N2CCN(c3ccc(F)cc3)CC2)cc1
IC50 [7]: > 100 µM (not active)
IC50 [8]: > 100 µM (inactive)

Cc1ccc(-c2nc3ccccc3c(=O)n2CCN2CCOCC2)cc1
IC50 [7]: > 100 µM (not active)
IC50 [8]: > 100 µM (inactive)

O=C(O)CN1C(=O)/C(=C/c2ccc(SCc3ccccc3)o2)SC1=S
IC50 [9]: > 50 µM (not active)
IC50 (SUMO-activating enzyme [10]): 15.5 µM (active)
IC50 (SUMO-activating enzyme [11]): 4.13 µM (active)

CC(=O)NC(=S)NNC(=O)C(c1ccccc1)c1ccccc1
IC50 [12]: 35.1 µM (active)
IC50 [13]: > 100 µM (inactive)

CC(=O)Nc1cccc(C(=O)NNC(=O)c2nnc(O)c3ccccc23)c1
EC50 [14]: > 100 µM (inactive)
EC50 [15]: 12.3 µM (active)
EC50 [16]: 6.37 µM (active)
EC50 [17]: 11 µM (active)

Cc1[nH]n(-c2nc(-c3ccccc3)cc(=O)[nH]2)c(=O)c1CCO
IC50 [18]: 2.36 µM (active)
EC50 [14]: > 100 µM (inactive)
EC50 [17]: 30.7 µM (active)
IC50 [19]: 2.82 µM (active)

Cc1ccc(/C=C2\SC(=S)N(/N=C/c3cc([N+](=O)[O-])ccc3O)C2=O)o1
IC50 [20]: 1.53 µM (active)
IC50 [21]: > 100 µM (inactive)
EC50 [22]: > 150 µM (inactive)
IC50 (SUMO-activating enzyme [10]): 4.54 µM (active)
IC50 [23]: 61.9 µM (active)
EC50 [24]: 27.8 µM (active)
IC50 (SUMO-activating enzyme [11]): 0.35 µM (active)
IC50 [25]: 80 µM (active)

NC(=O)C1CCN(C(=O)c2ccc(-c3ccccc3)cc2)CC1
EC50 (Troponin, cardiac muscle): > 71.5 µM (inactive)
